Measurements as given in patent US20110082410A1 (priority 2009, published 2011).

How the values were obtained:
[1] = system: superficial basal cell carcinomas; settings: low irradiance of range 10-50 mW/cm^2; cited from earlier work
[2] = local anesthesia: infiltrating, spraying or topical solution for transdermal delivery; cited from earlier work
[3] = topical, compared to ALA; cited from earlier work
hair follicle = test: Pulsed PDT for removal of unwanted hair with the photosensitizer methylene blue: pain during irradiation; settings: for PAIN: 665 nm

**Q.** Which “Pain induced by PDT treatment” value [1] does the source give for `NCC(=O)CCC(=O)O` [delta-ALA, δ-Aminolevulinic Acid] here?
**A.** no significant pain was reported

**Q.** With `CCN(CC)CC(=O)Nc1c(C)cccc1C` [lidocaine] as the molecule, how does the “Improvement of PDT-associated discomfort and pain” value [2] read?
**A.** not produced any significant improvement

**Q.** For `COC(=O)CCC(=O)CN` [methyl-ester-ALA], which Pain during illumination [3] is on record?
**A.** significantly less pain compared to ALA

**Q.** For `CN(C)c1ccc2nc3ccc(=[N+](C)C)cc-3sc2c1` [methylene blue], which PAIN (hair follicle; 5 s CW irradiation, 10 W/cm^2) is on record?
**A.** very painful

**Q.** What about the “Effectiveness of pulsed PDT for removal of unwanted hair” value (hair follicle; pulsed radiation) of the same molecule?
**A.** effective without pain

**Q.** What about the PAIN (hair follicle; trial 1: 2 pulses, pulse on 2.5 s, pulse off 0.5 s, 0.33 Hz, 50 J/cm^2, 10 W/cm^2) of the same molecule?
**A.** Very high to unbearable

**Q.** What about the PAIN (hair follicle; trial 2: 5 pulses, pulse on 1 s, pulse off 0.5 s, 0.67 Hz, 50 J/cm^2, 10 W/cm^2) of the same molecule?
**A.** High

**Q.** What about the PAIN (hair follicle; trial 3: 10 pulses, pulse on 0.5 s, pulse off 0.5 s, 1.00 Hz, 50 J/cm^2, 10 W/cm^2) of the same molecule?
**A.** Intermediate to small

**Q.** And the PAIN (hair follicle; trial 4: 14 pulses, pulse on 0.35 s, pulse off 0.5 s, 1.18 Hz, 50 J/cm^2, 10 W/cm^2)?
**A.** None

**Q.** And the PAIN (hair follicle; trial 5: 14 pulses, pulse on 0.35 s, pulse off 0.1 s, 2.22 Hz, 50 J/cm^2, 10 W/cm^2)?
**A.** None
